The results in this text go back to PubChem BioAssay (NCI).

The structures appear in SMILES notation.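 Assay format: 96-well plates, 48-hour exposure. The concentration for 50% growth inhibition is given as GI50. TGI is the concentration that stops growth completely.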

Holding throughout (assay): NCI-60 cell line screen, 48 h
Assay [1] deals with SW-620 colon.
For assay [2], the system named is OVCAR-4 ovarian.
Assay [3] has as its system SNB-19 CNS.
For assay [4], the system named is SF-539 CNS.
Assay [5] relates to ACHN renal.
The subject of assay [6] is PC-3 prostate.
For assay [7], the system named is UACC-62 melanoma.
The subject of assay [8] is KM12 colon.
Assay [9] concerns SK-MEL-5 melanoma.
For assay [10], the system named is CAKI-1 renal.

`CC(C)C1OC(=O)/C=C/C=C/C=C/C=C/C=C/CC(O)C(C)C(O)CC(O)CC(O)CC(O)CC(O)CC(O)CC(O)/C=C/C1C` (stereo not given): the TGI in [1], in assay [2], in [3], in assay [4], in [5] and in [6] was over 100 µM throughout. The TGI in assay [7] and in [8] was over 100 µM throughout.
Turning to `C/C(N=Nc1nc2ccccc2[nH]1)=C1/C=CC=CN1O`, the TGI in [9], in assay [1], in assay [2], in assay [3], in assay [4] and in assay [10] was over 100 µM throughout. Further, the TGI in assay [5], in assay [6], in assay [7] and in assay [8] was over 100 µM each time.
In the case of `COC(OC)C1OC(CO)C(n2cc(F)c(=O)[nH]c2=O)C1O` (stereo not given), the TGI in assay [1], in [2], in assay [3], in [4], in assay [10] and in assay [5] was over 100 µM throughout. Also, the TGI in assay [6], in [7] and in assay [8] was over 100 µM throughout.
In the case of `C1=CC(=[N+]2N=C(c3ccccc3)CC2c2ccccc2)C=CC1=C1SC(c2ccccc2)(c2ccccc2)c2ccccc21` (stereo not given), the TGI in assay [9], in assay [1], in [3], in [4], in [5] and in assay [6] was over 100 µM each time. Also, the TGI in [7] and in [8] was over 100 µM in each case.
As for `COc1cc2c(cc1OCCCCCCCCN1C(=O)c3cccc4cccc(c34)C1=O)N=C[C@@H]1CCCN1C2=O`, the TGI was 25.4 µM in [9]; over 100 µM in [1]; 7.41 µM in assay [2]; over 100 µM in [3]; 13.2 µM in [4]; 52.6 µM in assay [10]. Also, the TGI in [5] was over 100 µM; in [6], 27.6 µM; in assay [7], 28.4 µM; in [8], 52 µM.
Consider `COC(CN(C=O)[C@@H](c1ccc(Cl)cc1)c1cc2ccccc2o1)OC`, for which the TGI was 28.9 µM in assay [9]; 31.4 µM in [1]; 40 µM in assay [2]; 41.2 µM in assay [3]; 34.3 µM in [4]; 34.7 µM in assay [10]. The TGI in assay [5] is 41.7 µM; in [6] it was 45.6 µM; in assay [7], 29.7 µM; in assay [8] it was 31.4 µM.
`O=S(=O)(O)c1cc(N=[N+]([O-])c2cc(S(=O)(=O)O)c3ccccc3c2)cc2ccccc12`: the TGI in assay [9] was 32.8 µM; in assay [1], over 100 µM; in assay [2] it was 38.2 µM; in [3], over 100 µM; in assay [4] it was 60.2 µM; in [10], 44.4 µM. Besides, the TGI in assay [5], in [6], in assay [7] and in [8] was over 100 µM each time.
As to `O=C(O)C(O)C(O)C(O)C(=O)CO` (stereo not given), the TGI in [9], in assay [1], in assay [2], in assay [3], in assay [4] and in assay [10] was over 100 µM each time. Moreover, the TGI in assay [5], in [6], in assay [7] and in [8] was over 100 µM each time.
On to `CCCSc1ccc2[nH]c(N3C(=O)/C(=C/c4cc(OC)c(OC)c(OC)c4)N=C3c3ccccc3)cc2c1`, for which the TGI was 19 µM in [9]; over 37.5 µM in [1]; over 37.5 µM in assay [2]; over 37.5 µM in assay [3]; 23.6 µM in assay [4]; over 37.5 µM in [10]. Also, the TGI in [5], in [6], in assay [7] and in assay [8] was over 37.5 µM throughout.
For the compound `O=C1/C(=C\c2ccc(F)cc2)CCOc2c1ccc1ccccc21`, the TGI was 47.9 µM in assay [9]; over 100 µM in [1]; over 100 µM in assay [2]; over 100 µM in [3]; 48.5 µM in assay [4]; over 81.6 µM in [10]. Also, the TGI in [5] is over 100 µM; in assay [6], over 100 µM; in assay [7] it was over 100 µM; in [8], 31.5 µM. In addition, the GI50 in assay [5] is 47.9 µM.
Turning to `COc1cc2c(cc1C)NC(=O)/C2=C/c1c(Cl)n(-c2ccccc2)c2ccccc12`, the TGI is 22.3 µM in assay [9]; 38.7 µM in [1]; over 100 µM in assay [3]; 24.3 µM in [4]; over 100 µM in assay [10]; over 100 µM in [5]. Also, the TGI in assay [6] was over 100 µM; in assay [7], 73.5 µM; in assay [8], over 100 µM.
Turning to `CCCN1C(=O)CSC1=Nc1ccc2cc3ccc(N=C4SCC(=O)N4CCC)cc3nc2c1`, the GI50 was 49 µM in [9]; over 100 µM in [1]; 45.8 µM in assay [2]; 95.4 µM in assay [3]; 59.2 µM in assay [4]; over 100 µM in assay [10]. The GI50 is 29.6 µM in assay [5], 78.1 µM in assay [6], 85.9 µM in [7] and 35.9 µM in assay [8]. Moreover, the TGI in assay [9], in [1], in [2], in [3], in [4] and in assay [10] was over 100 µM throughout. Also, the TGI in assay [5], in assay [6], in assay [7] and in assay [8] was over 100 µM each time.
`CCOC(=O)C(=O)NCCCN1CCOCC1`: the TGI in assay [9], in assay [1], in assay [2], in [3], in assay [4] and in assay [10] was over 100 µM throughout. The TGI in assay [5], in assay [7] and in assay [8] was over 100 µM throughout.
For the compound `O=C1CC2(CCC(O)(c3cccs3)C(C(=O)c3cccs3)C2)C(=O)c2ccccc2N1` (stereo not given), the TGI in assay [9], in assay [1], in assay [4], in assay [10], in assay [6] and in assay [7] was over 100 µM in each case.
Consider `Nc1ccc(-c2nc3cc(F)ccc3s2)cc1CO`, for which the TGI in assay [9] was over 100 µM; in assay [1], over 100 µM; in assay [2] it was over 100 µM; in assay [3], over 90.6 µM; in assay [4], 46.7 µM; in assay [10] it was over 100 µM. In addition, the TGI in [5] is over 100 µM; in assay [6], over 76.1 µM; in assay [7], over 58.7 µM; in assay [8], over 100 µM.
In the case of `CC(=O)c1ccc2c(c1)N(CCCN1CCN(CCO)CC1)c1ccccc1C2`, the TGI in [9] came out at 25.6 µM; in [1], 31.3 µM; in assay [2] it was 30.2 µM; in assay [3] it was 33.8 µM; in assay [4], 33.1 µM; in assay [10], 26.9 µM. In addition, the TGI in assay [5] was 34.8 µM; in assay [6] it was 27.8 µM; in [7], 23 µM; in [8], 31.1 µM.
Turning to `COC(=S)OC1CC(n2cnc3c(N)ncnc32)OC1CO[Si](C)(C)C(C)(C)C` (stereo not given), the TGI is over 100 µM in [1]; 44 µM in assay [2]; over 100 µM in assay [3]; 44.1 µM in assay [6]; 24 µM in [7]; 89.8 µM in assay [8].
As for `Nc1cc(-c2ccc(Cl)cc2)nn1-c1nc2ccccc2nc1-c1ccccc1`, the TGI in [9], in assay [1], in assay [2], in assay [3], in [4] and in assay [10] was over 100 µM throughout. The TGI in assay [5], in [6], in [7] and in [8] was over 100 µM throughout.
Take `O=c1[nH]c(Nc2ccc(Cl)cc2)nc2nc[nH]c12`: the TGI in [9], in [1], in assay [2], in assay [3], in assay [4] and in assay [10] was over 100 µM in each case. Besides, the TGI in assay [5], in assay [6], in [7] and in assay [8] was over 100 µM each time.
Take `O=c1c2ccccc2[nH]c(=S)n1-c1ccc(N=Nc2cccc3cc(O)ccc23)cc1`: the TGI in assay [9], in [1], in [2], in assay [3], in assay [4] and in assay [10] was over 100 µM each time. The TGI in assay [5], in assay [6], in assay [7] and in assay [8] was over 100 µM each time.
For `Nc1ccc(Oc2ccc(C34CC5CC(C3)CC(c3ccc(Oc6ccc(N)cc6)cc3)(C5)C4)cc2)cc1`, the TGI in assay [9] is 26.2 µM; in [1] it was over 100 µM; in [2], 51.2 µM; in assay [3], 38.7 µM; in [4], 36.4 µM; in assay [10] it was 46.3 µM. Further, the TGI in [5] was over 51.4 µM; in assay [6] it was 25.7 µM; in [7], 27.3 µM; in assay [8], over 45.4 µM.
Regarding `COC(=O)C[C@H](COCc1ccccc1)NC(=O)C[C@H](COCc1ccccc1)NC(=O)OC(C)(C)C`, the TGI is over 100 µM in assay [9]; over 100 µM in assay [1]; 36.7 µM in [2]; 44.2 µM in assay [3]; over 100 µM in [4]; over 100 µM in assay [10]. Also, the TGI in assay [5] was over 100 µM; in assay [6], 77.6 µM; in assay [7] it was over 100 µM; in [8] it was over 100 µM.
With `Cc1cnoc1NS(=O)(=O)c1ccc(Nc2nnc(/C=C/c3c(O)ccc4ccccc34)c(=O)n2N)cc1`, the TGI is over 100 µM in assay [1]; over 100 µM in [2]; over 100 µM in assay [3]; 88.9 µM in [10]; 55.1 µM in [5]; 52.5 µM in assay [7].
With `NC(=S)N1N=C(c2ccccc2O)CC1c1ccccc1` (stereo not given), the TGI in assay [9] was 23.1 µM; in assay [1], over 100 µM; in [2] it was 67.1 µM; in [3] it was over 100 µM; in [4], 36.1 µM; in assay [10], over 100 µM. Further, the TGI was found to be 61.8 µM in assay [5], 22.8 µM in [6], 29.7 µM in assay [7] and 43.4 µM in assay [8].
In the case of `COc1ccc(C2c3cc4c(cc3OC(O)(CO)C2C(=O)O)OCO4)cc1` (stereo not given) (tested in a mixture with another compound), the TGI is 39.5 µM in assay [9]; 37.6 µM in assay [1]; over 100 µM in assay [2]; 43.6 µM in assay [4]; 36.4 µM in assay [7]; 67.2 µM in assay [8].
As to `CC(=O)Oc1ccc(CO)cc1OC(C)=O`, the TGI in [9], in [1], in [2], in [3], in [10] and in [5] was over 100 µM throughout. The TGI in [7] and in assay [8] was over 100 µM in each case.
On to `Cc1ccccc1NC(=O)CC(=O)N1N=C(N2c3ccccc3Sc3ccccc32)CC1c1ccccc1` (stereo not given), for which the TGI in assay [9], in assay [1], in [2], in [3], in assay [4] and in assay [10] was over 100 µM in each case. The TGI in [5], in assay [7] and in assay [8] was over 100 µM throughout.
